Test results from article PMC9304199, “A small molecule CFTR potentiator restores ATP‐dependent channel gating to the cystic fibrosis mutant G551D‐CFTR” (British Journal of Pharmacology, 2022).

Columns and labels:
F508del‐CFTR [1] = target: T1, F508del‐CFTR (Homo sapiens, UniProt P13569, DEL508-508); test: Single-channel recording in excised inside-out membrane patches, F508del‐CFTR; type: biochemical; parameters: expressed in transfected cells; BHK cells from MD Amaral; details: for reduction of interburst interval (IBI): single active channel; for Emax: read-out: Maximal effect (%) (95% CI)
T1 sequence (P13569 with tags, fused parts or gaps DEL508-508): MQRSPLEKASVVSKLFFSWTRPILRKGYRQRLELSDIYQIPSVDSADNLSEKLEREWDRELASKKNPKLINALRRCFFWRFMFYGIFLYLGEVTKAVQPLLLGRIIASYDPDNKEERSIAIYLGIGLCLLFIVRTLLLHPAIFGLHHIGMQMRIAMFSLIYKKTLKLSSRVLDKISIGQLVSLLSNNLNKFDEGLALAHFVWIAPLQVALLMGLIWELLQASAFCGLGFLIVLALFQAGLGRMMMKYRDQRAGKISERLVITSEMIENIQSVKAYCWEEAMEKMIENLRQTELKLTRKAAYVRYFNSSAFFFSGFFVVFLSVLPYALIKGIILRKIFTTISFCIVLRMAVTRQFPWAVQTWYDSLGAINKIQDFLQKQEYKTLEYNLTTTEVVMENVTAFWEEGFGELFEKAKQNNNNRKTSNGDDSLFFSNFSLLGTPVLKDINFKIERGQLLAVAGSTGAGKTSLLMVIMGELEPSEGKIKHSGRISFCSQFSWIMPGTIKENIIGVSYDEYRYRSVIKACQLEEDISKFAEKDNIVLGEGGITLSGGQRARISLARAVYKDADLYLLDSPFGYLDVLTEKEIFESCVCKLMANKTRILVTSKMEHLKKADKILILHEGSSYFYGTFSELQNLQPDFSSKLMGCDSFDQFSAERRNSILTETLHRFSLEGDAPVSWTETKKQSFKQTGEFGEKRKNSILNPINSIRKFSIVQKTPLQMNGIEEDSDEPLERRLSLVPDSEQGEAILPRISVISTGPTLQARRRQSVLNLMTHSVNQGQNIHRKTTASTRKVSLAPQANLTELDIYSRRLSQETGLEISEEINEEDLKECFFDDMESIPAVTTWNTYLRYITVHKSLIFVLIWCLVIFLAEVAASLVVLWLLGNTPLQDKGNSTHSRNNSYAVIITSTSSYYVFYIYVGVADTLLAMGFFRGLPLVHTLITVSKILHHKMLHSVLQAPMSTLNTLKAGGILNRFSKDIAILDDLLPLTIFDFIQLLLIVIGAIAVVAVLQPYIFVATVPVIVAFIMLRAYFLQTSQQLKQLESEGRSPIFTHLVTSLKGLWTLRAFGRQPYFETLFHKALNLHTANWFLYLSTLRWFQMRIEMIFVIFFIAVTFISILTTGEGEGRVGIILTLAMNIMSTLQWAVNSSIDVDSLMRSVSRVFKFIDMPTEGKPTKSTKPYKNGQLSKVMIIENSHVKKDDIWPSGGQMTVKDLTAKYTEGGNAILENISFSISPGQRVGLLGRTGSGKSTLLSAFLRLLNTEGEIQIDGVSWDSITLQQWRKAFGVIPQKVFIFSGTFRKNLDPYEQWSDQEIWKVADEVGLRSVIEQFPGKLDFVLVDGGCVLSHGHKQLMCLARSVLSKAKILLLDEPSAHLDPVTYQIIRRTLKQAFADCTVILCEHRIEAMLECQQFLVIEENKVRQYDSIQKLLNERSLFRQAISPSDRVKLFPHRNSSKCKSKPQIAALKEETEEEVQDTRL
Method: For CFTR studies using automated electrophysiology and single-channel recording, we used baby hamster kidney (BHK) cells (RRID:CVCL_1915) and human embryonic kidney (HEK) 293 cells (RRID:CVCL_0045) stably expressing wild-type human CFTR and the CFTR variants F508del- and […] et al., [2002]; Xu et al., [2014]). […] HEK cells expressing CFTR variants were generated using the Flp-InTM system as described above for F508del- and G551D-CFTR-expressing FRT cells. They were cultured in Dulbecco's modified Eagle's medium (glucose, 1.5 g·L^-1; sodium pyruvate, 110 mg·L^-1) supplemented with 10% FBS (PAA Laboratories), GlutaMAXTM and hygromycin-B (150 μg·ml^-1; InvitrogenTM, Thermo Fisher Scientific) at 37°C in a humidified atmosphere with 5% CO2. Prior to study, F508del-CFTR expressed in HEK cells was trafficked to the plasma membrane by low temperature incubation (27°C for 24-72 h). […] CFTR Cl^- channels were recorded in excised inside-out membrane patches using an Axopatch 200B patch-clamp amplifier and pCLAMP software (version 10.3) (RRID:SCR_011323) (both from Molecular Devices, San Jose, CA, USA) (Sheppard & Robinson, [1997]). […] Within 2 min after membrane patch excision, we added the catalytic subunit of protein kinase A (PKA; 75 nM) and ATP (1 mM) to the intracellular solution to activate CFTR Cl^- channels. To minimise channel rundown, we added PKA and millimolar concentrations of ATP to all intracellular solutions and clamped voltage at -50 mV. […] We reduced the ATP concentration when testing CFTR potentiators on wild-type CFTR to observe their effects more clearly. […] Instead, specific interventions with CFTR potentiators were compared with the pre-intervention control period made with the same concentration of ATP and PKA, but without test compounds. […] To determine channel number, we used the maximum number of simultaneous channel openings observed during an experiment (Cai et al., [2006]). To minimise errors, we used experimental conditions that robustly potentiate channel activity and verified that recordings were of sufficient length to ascertain the correct number of channels ([…] et al., [1994]). […] Therefore, Po values for G551D-CFTR are expressed as apparent Po (Po(app)) values. Single-channel currents were directly acquired to a computer hard disc after filtering at a corner frequency (f c) of 500 Hz with an eight-pole Bessel filter (model LHBF-48×; npi electronic GmbH, Tamm, Germany) and digitising at a sampling rate of 5 kHz using a Digidata 1440A interface (Molecular Devices) and pCLAMP software. To measure single-channel current amplitude (i), Gaussian distributions were fit to current amplitude histograms. For Po and burst analyses, lists of open- and closed-times were created using a half-amplitude crossing criterion for event detection and dwell-time histograms constructed as previously described (Sheppard & Robinson, [1997]); transitions < 1 ms were excluded from the analysis (eight-pole Bessel filter rise time [T 10-90] ~ 0.73 ms at f c = 500 Hz). Histograms were fitted with one or more component exponential functions using the maximum likelihood method. […] The mean interburst interval (TIBI) was calculated using the equation (Cai et al., [2006]): (1) Po=Tb/TMBD+TIBI, where T b = (mean burst duration) × (open probability within a burst). Mean burst duration (T MBD) and open probability within a burst (Po[burst]) were determined directly from experimental data using pCLAMP software.

F508del‐CFTR [2] = target: T1, F508del‐CFTR; test: Fluorescence-based halide flux assay (I−-induced quenching of YFP fluorescence) in FRT cells; type: cell-based; details: exploratory data
Method: Fischer rat thyroid (FRT) epithelial cells (RRID:CVCL_A6IE) expressing CFTR variants were used for functional studies with halide flux and Ussing chamber techniques. FRT cells stably expressing the F508del variant with the V470 polymorphism and the halide sensor yellow fluorescent protein (YFP)‐H148Q/I152L (F508del‐CFTR‐YFP‐FRT cells) (Galietta et al., [2001]) were obtained from LJV Galietta (Telethon Institute for Genetics and Medicine, Pozzuoli, Italy). They were cultured in Coon's modified Ham's F‐12 medium supplemented with 10% FBS, 2‐mM GlutaMAX™, 0.27% NaHCO3, 100 U·ml^−1 penicillin and 100 μg·ml^−1 streptomycin and 0.8 mg·ml^−1 zeocin at 37°C in a humidified atmosphere with 5% CO2. […]
CFTR‐mediated anion transport was quantified by measuring I^−‐induced quenching of YFP fluorescence using a microtitre plate reader following the method of Galietta et al. ([2001]). […] Using a fluorescence microtitre plate reader (FLIPR384; Molecular Devices, San Jose, CA, USA) equipped with 500‐nm excitation and 535‐nm emission filters, an initial fluorescence reading was recorded before addition of PBS‐iodide solution (composition [mM]: 137 NaI, 2.7 KCl, 8.1 Na2HPO4, 1.5 KH2PO4, 1 CaCl2, and 0.5 MgCl2, pH 7.40) into each well and 21 s later a second fluorescence reading was acquired. […]

[3] = F508del‐CFTR Cl− channels, excised inside-out patches, 23°C, data normalised to ivacaftor 1 μM, read-out: EC50 (μM) (95% CI)
[4] = low temperature-rescued F508del‐CFTR, ATP 1 mM, PKA 75 nM, ~23°C
[5] = low temperature-rescued F508del‐CFTR, ATP 1 mM, PKA 75 nM, ~23°C, read-out: EC50 for potentiation of Po
[6] = low temperature-rescued F508del‐CFTR, compound 1 μM, ATP 1 mM
[7] = low temperature-rescued F508del‐CFTR, compound 10 μM, ATP 1 mM

| Structure (SMILES) | EC50 (F508del‐CFTR [1]; [3]) | Po max (F508del‐CFTR [1]; [4]) | EC50 (F508del‐CFTR [1]; [5]) | enhancement of Po (F508del‐CFTR [1]; [6]) | reduction of interburst interval (IBI) (F508del‐CFTR [1]; [6]) | Emax (F508del‐CFTR [1]) | maximal response compared with ivacaftor (F508del‐CFTR [2]; FRT cells co-expressing low temperature-rescued F508del‐CFTR and YFP) | EC50 (F508del‐CFTR [2]; FRT cells co-expressing low temperature-rescued F508del‐V470‐CFTR and YFP, forskolin 20 μM, scaled to DMSO 0% and genistein 50 μM 100%, read-out: EC50 for potentiation of CFTR-mediated anion transport) | Po max of ATP-dependence in presence of compound (F508del‐CFTR [1]; low temperature-rescued F508del‐CFTR, compound 300 nM, ATP 0.1–3 mM) | enhancement of Po (F508del‐CFTR [1]; [7]) | reduction of interburst interval (IBI) (F508del‐CFTR [1]; [7]) |
| --- | --- | --- | --- | --- | --- | --- | --- | --- | --- | --- | --- |
| CC(C)(C)c1cc(C(C)(C)C)c(NC(=O)c2c[nH]c3ccccc3c2=O)cc1O [ivacaftor, reference compound] | 0.008 µM | 0.51 | 0.01 µM | 9 ± 5 fold | 15 fold | 103% |  |  |  |  |  |
| Cc1ncccc1CNC(=O)c1ccc2c(c1)CC[C@H]1C[C@](O)(CCC(F)(F)F)CC[C@]21Cc1ccccc1 (racemic) [CP‐628006, rac‐(4bR,7R,8aS)‐4b‐benzyl‐7‐hydroxy‐N‐((2‐methylpyridin‐3‐yl)methyl)‐7‐(3,3,3‐trifluoropropyl)‐4b,5,6,7,8,8a,9,10‐octahydrophenanthrene‐2‐carboxamide] | 0.5 µM | 0.62 | 0.4 µM |  |  | 144% | approximately half that of ivacaftor | 400 nM | 0.33 | 13 ± 5 fold | 15 fold |
